Laboratory results: patent publication EP4644389A1, “PRMT5-MTA INHIBITOR” (Suzhou Puhe Biopharma Co., Ltd., priority 2022, dated 2024)

Tests used:
[1] = Pharmacokinetic evaluation in mice (IV and oral); conditions: female, CD1, mouse, in vivo
Protocol: CD1 female mice were used as test animals, and the compounds were administered orally or intravenously (oral dose of 10 mg/kg; intravenous dose of 2 mg/kg).
Experiment protocol: Three mice per group for oral administration, and three mice per group for intravenous administration. Oral: Plasma samples were collected before administration (0 h) and at 0.25, 0.5, 1, 2, 4, 8, and 24 hours post-administration; Intravenous: Plasma samples were collected before administration (0 h) and at 0.083, 0.25, 0.5, 1, 2, 4, 8, and 24 hours post-administration. The plasma drug concentrations in mice after oral and intravenous administration were determined using LC/MS/MS, and the collected data were analyzed using AB Sciex QTRAP 6500 software.

[2] = tested on: HCT116-MTAPdel; assay: 2D anti-proliferation assay (CTG luminescence), MTAP-deficient HCT116 cells; assay type: cell-based
Protocol: (§1) HCT116 wild-type and MTAP-deficient cells were cultured in MCCOYS 5A medium containing 10% FBS and 1% penicillin-streptomycin and incubated in a 37°C, 5% CO2 incubator. A 40 µL cell suspension was added to each well of a 384-well microplate. Using Echo, 40 nL of the compound at different concentrations were added to each well, followed by incubation in a 37°C, 5% CO2 incubator for 7-10 days. 40 µL of CTG solution (Promega, Cat No. G7573) was added to each well and incubated away from light in a 37°C, 5% CO2 incubator for 30 minutes. Luminescence was measured using an Envision multimode plate reader (Perkin Elmer, Catalog No. Envision 2104). The luminescence signal was proportional to the ATP content in the system, and the ATP content directly reflected the number of viable cells in the system.

[3] = tested on: Caco-2 monolayer cells; assay: Caco-2 membrane permeability assay; assay type: in vitro ADME; conditions: Caco-2, Efflux Ratio = Papp (B-A)/Papp (A-B)
Protocol: (§2) Evaluation of membrane permeability of the molecules of the present invention. Samples will be analyzed using LC-MS to estimate the apparent permeability coefficient (Papp) of the compound in Caco-2 monolayer cells, wherein the pH of the apical chamber is 6.5, and the pH of the basolateral chamber is 7.4. The P-gp efflux transporter, BCRP, and MRP2 inhibitors (50 µM quinidine, 30 µM benzbromarone, and 20 µM sulfasalazine) can block the active efflux transport of the compound. The data will be used for calculating apparent permeability (Papp). Papp = (VA×⌊drug⌋acceptor)/(Area×Time×⌊drug⌋initial,donor) [formula] wherein, VA is the volume of the receptor well (unit: mL), area is the membrane surface area (for Transwell-96 well permeable support, it is 0.143 cm^2), and time is the total transport time (unit: seconds). Efflux Ratio = Papp (B−A)/Papp (A−B) [formula]

[4] = Caco-2 membrane permeability assay; assay type: in vitro ADME; conditions: human
Protocol: as §2

[5] = tested on: MDCK-MDR1 cells; assay: MDCK-MDR1 membrane permeability assay; assay type: in vitro ADME; conditions: MDCK-MDR1, Efflux Ratio = Papp (B-A)/Papp (A-B)
Protocol: (§3) Evaluation of membrane permeability of the molecules of the present invention to predict their permeability for the brain.
(§4) Specifically: 1. Pre-incubate MDCK-MDR1 cells at a density of 1.56×10^6 cells/mL, inoculate them in a 96-well plate to culture at 37°C for 7 days; 2. Remove the MDCKII-MDR1 plate from the incubator, wash twice with pre-warmed HBSS (10 mM HEPES, pH 7.4), and incubate at 37°C for 30 minutes; 3. Dilute the stock solution of the test compound with DMSO to obtain a 0.2 mM solution, then further dilute it with HBSS (10 mM HEPES, pH 7.4) to prepare a 1 µM working solution. For the blank control group, dilute with DMSO to obtain a 0.2 mM solution, then further dilute with HBSS (10 mM HEPES, pH 7.4) to obtain a 1 µM working solution. The final concentration of DMSO in the culture system is 0.5%; 4. Measure the transport rate of the drug from the apical side to the basolateral side. Add 125 µL of the 1 µM test compound solution into the Transwell insert (apical chamber) and immediately transfer 50 µL of the sample (D0 sample) from the apical chamber to a new 96-well plate. Fill the receptor plate wells (basolateral chamber) with 235 µL HBSS (10 mM HEPES, pH 7.4) and incubate at 37°C for 2 hours; 5. At the end of the incubation, transfer 50 µL of the sample from both the donor side and the acceptor side into the wells of a new 96-well plate, then add four volumes of cold acetonitrile containing the appropriate internal standard (IS). Before the LC-MS/MS analysis, take 100 µL of the supernatant and mix it with an appropriate volume of ultrapure water. Papp = (VA×⌊drug⌋acceptor)/(Area×Time×⌊drug⌋initial,donor) [formula] wherein VA is the volume of the acceptor well (unit: mL), area is the membrane surface area (for Transwell-96 well permeable support, it is 0.143 cm^2), and time is the total transport time (in seconds). Efflux Ratio = Papp (B−A)/Papp (A−B) [formula]

[6] = tested on: MDR1 (P-gp); assay: MDCK-MDR1 membrane permeability assay; assay type: in vitro ADME; conditions: dog; MDCK-MDR1, 1 µM, pH 7.4, 2 hours
Protocol: as §3, §4

[7] = tested on: MDR1; assay: MDCK-MDR1 membrane permeability assay; assay type: in vitro ADME; conditions: dog, pH 7.4; MDCK-MDR1, Efflux Ratio = Papp (B-A)/Papp (A-B)
Protocol: as §3, §4

[8] = Liver microsomal stability, human; assay type: in vitro ADME; conditions: human liver microsomes 0.5 mg/mL, compound 1 µM, NADPH 1 mM, 60 minutes
Protocol: Microsomal stability experiment of the compound. The details are as follows: A microsomal stability test was conducted on the compounds of the present invention. The test compounds were co-incubated with liver microsomes from different species, with or without the addition of NADPH. In the test system, the final concentration of the test compound was 1 µM, the final concentration of NADPH was 1 mM, and the final concentration of liver microsomes was 0.5 mg/mL.

[9] = tested on: HCT116-MTAPwt; assay: 2D anti-proliferation assay (CTG luminescence), wild-type HCT116 cells; assay type: cell-based; conditions: Homo sapiens, HCT-116, 7-10 days incubation
Protocol: By testing the activity of both of them, the inhibitory effect and selectivity of the molecules of the present invention for PRMT5 at the cellular level were shown.
as §1
ICso value calculation: [formula] • X: Log value of compound concentration • Y: Inhibition rate (%) Table 1: 2D Anti-proliferation Effects of Compounds on HTC116-MTAP del and Wild-type Colorectal Cancer HCT-116 Cell Lines.

[10] = Caco-2, apical pH 6.5, basolateral pH 7.4

Work on `Cc1c(CO)c(N)nc2cc(F)c(C(=O)N(C)[C@@H]3COc4cc(C(F)(F)F)ccc43)cc12` [Compound A9a] yielded a bioavailability [1] of 81%, an AUC(0-t) ([1]; iv, 2 mg/kg) of 19500 ng·h/mL and a C0 ([1]; iv, 2 mg/kg) of 4010 ng/mL. For the same compound, the clearance ([1]; iv, 2 mg/kg) was 1.7 mL/min/kg, the half-life ([1]; iv, 2 mg/kg) was 3.3 h and the AUC(0-t) ([1]; po, 10 mg/kg) was 74200 ng·h/mL. The Cmax ([1]; po, 10 mg/kg) was 5340 ng/mL, the Tmax ([1]; po, 10 mg/kg) was 2 h and the half-life ([1]; po, 10 mg/kg) was 5.9 h. The IC50 ([2]; Homo sapiens, HCT-116, HCT116 MTAP-deficient cells, 7-10 days incubation, CTG, read-out: HCT116-MTAPdel/IC50/nM) was 16 nM, the “HCT116 WT/MTAPdel Selectivity” value ([2]; ratio of IC50 HCT116 WT / MTAPdel) was 130 and the Efflux [3] was < 2. It also gave an efflux ratio ([4]; Caco-2, Efflux Ratio = Papp (B-A)/Papp (A-B)) of 1.6, a Papp A→B [4, 10] of 6.9 ×10⁻⁶ cm/s and a Papp B→A [4, 10] of 10.8 ×10⁻⁶ cm/s. The Efflux [5] was 1.2, the Papp A→B at 2 h, 1 µM [6] was 5.1 ×10⁻⁶ cm/s and the Papp B→A at 2 h, 1 µM [6] was 5.9 ×10⁻⁶ cm/s. It also gave an efflux ratio at 2 h, 1 µM [7] of 1.2, a CLint scaled at 1 µM [8] of 8.9 mL/min/kg and an IC50 [9] of 2470 nM.
